{"source": "patent US20080027025A1", "about": "(The Regents of the University of California, priority 2004, published 2008)", "key": {"N2a cells": {"test_system": "N2a cells", "type": "cell-based, Murine"}, "N2aPK1 cells": {"test_system": "N2aPK1 cells", "type": "cell-based, murine"}, "[1]": {"test_system": "Reporter T cells containing an integrated loxP-STOP-loxP GFP expression gene", "type": "cell-based"}, "cells": {"test_system": "cells", "conditions": "cited from earlier work"}}}
{"molecule": "CCN(c1nc(N)c(C(=O)NC(=N)N)nc1Cl)C(C)C", "note": "[EIPA]", "values": [{"measurement": "cell surface association of rPrP^C-546", "setting": "N2a cells", "value": "did not block"}, {"measurement": "cellular uptake of rPrP^C-546", "setting": "N2a cells", "value": "prevented the cellular uptake"}, {"measurement": "PrP^C to PrP^Sc conversion (proteinase K resistant PrP)", "setting": "N2aPK1 cells", "value": "concentration-dependent inhibition"}]}
{"molecule": "chondroitin sulfate B", "values": [{"measurement": "uptake of rPrP^C(23-90)-Cre into cells and subsequent DNA recombination (GFP-positive cells)", "setting": "[1]", "value": "inhibited protein uptake into cells and subsequent DNA recombination in a dose-dependent manner"}]}
{"molecule": "C[C@@H]1[C@H](O)[C@@H](C)/C=C/C=C/CC/C=C/C=C/C=C/C=C/C(O[C@H]2O[C@H](C)[C@@H](O)[C@H](N)[C@@H]2O)CC2O[C@](O)(CC(O)C(O)CCC(O)CC(O)CC(O)CC(=O)O[C@H]1C)CC(O)C2C(=O)O", "note": "(stereo partly shown) [nystatin]", "values": [{"measurement": "internalization of rPrP^C-Alexa546", "setting": "N2a cells", "value": "prevented"}]}
{"molecule": "C=C1[C@@H](C)[C@H]2[C@H](Cc3ccccc3)NC(=O)[C@]23[C@H](OC(C)=O)/C=C/[C@@](C)(O)C(=O)[C@@H](C)C/C=C/[C@H]3[C@@H]1O", "note": "[cytochalasin D]", "values": [{"measurement": "cell surface association of rPrP^C-546", "setting": "N2a cells", "value": "did not block"}, {"measurement": "cellular uptake of rPrP^C-546", "setting": "N2a cells", "value": "prevented the cellular uptake"}]}
{"molecule": "heparin", "values": [{"measurement": "surface binding of rPrP^C-Alexa546", "setting": "N2a cells", "value": "prevented"}, {"measurement": "uptake of rPrP^C(23-90)-Cre into cells and subsequent DNA recombination (GFP-positive cells)", "setting": "[1]", "value": "inhibited protein uptake into cells and subsequent DNA recombination in a dose-dependent manner"}, {"measurement": "PrP^C infection of cells", "setting": "cells", "value": "can prevent"}]}
